Measurements reported in patent publication US20040005537A1, “Method of identifying toxic agents using differential gene expression” (priority 2000, published 2004).

Tests used:
[1] = grouping used to generate the distinguishing gene profiles; cited from earlier work
[2] = system: rat heart tissue; experiment: GENECALLING differential gene expression analysis after dosing of serotonin modulating agents; format: in vivo, Sprague Dawley rats
Experimental: Control animals received sterile water or canola oil. The animals were sacrificed 24 hours following the last dose. Liver tissue was dissected from the animals, and total RNA was recovered from the dissected tissue. cDNA was prepared and the resulting samples were processed through using GENECALLING™ differential expression analysis as described in U.S. Pat. No. 5,871,697 and in Shimkets et al., Nature Biotechnology 17:798-803 (1999). The contents of these patents and publications are incorporated herein by reference in their entirety.
Thousands of gene fragments were initially found to be differentially expressed in rat heart tissue in response to serotonin modulating agents in. Genes fragments whose expression levels were modulated greater than ±1.5-fold were selected for further analysis.
Column 6 of Table 1, entitled “Function”, lists the type of classification assigned for the protein, based on its function. The 210 single nucleic acid sequences identified herein, are referred to herein as CARDIOTOX 1-210.

CNS(=O)(=O)Cc1ccc2[nH]cc(CCN(C)C)c2c1 [sumatriptan]
classification as cardiotoxic or noncardiotoxic serotonin modulating agent [1]: noncardiotoxic | Effects on Transcription Level: Novel gene fragment, 524 bp, 86% SI to mouse F-box protein FBX6b [AF176526] ([2]; CARDIOTOX 1): +1.5 fold | Effects on Transcription Level: Novel gene fragment, 306 bp, 91% SI to mouse low density lipoprotein receptor related protein 4 [AB013874] ([2]; CARDIOTOX 2): −1.6 fold | Effects on Transcription Level: Novel gene fragment, 540 bp, 97% SI to mouse skeletal muscle alpha-actin [X03766] ([2]; CARDIOTOX 3): +2.4 fold | Effects on Transcription Level: Novel gene fragment, 80 bp ([2]; CARDIOTOX 4): −1.4 fold | Effects on Transcription Level: Novel gene fragment, 957 bp, 99% SI to kidney injury associated moleculer HW036 [V80591] ([2]; CARDIOTOX 5): −1.6 fold | Effects on Transcription Level: Novel gene fragment, 282 bp, 85% SI to human KIAA1515 protein [AB040948] ([2]; CARDIOTOX 6): −1.7 fold | Effects on Transcription Level: Novel gene fragment, 405 bp, 88% SI to human 2-oxoglutarate dehydrogenase [D10523] ([2]; CARDIOTOX 7): +1.5 fold | Effects on Transcription Level: UCP2 ([2]; CARDIOTOX 8, GenBank AB010743): −1.6 fold | Effects on Transcription Level: Plasma membrane Ca2 + ATPase-isoform 1 ([2]; CARDIOTOX 9, GenBank J03753): −1.6 fold | Effects on Transcription Level: Novel gene fragment, 242 bp, 97% SI to mouse HSP86 heat-shock protein [X16857] ([2]; CARDIOTOX 10): +1.4 fold | Effects on Transcription Level: Novel gene fragment, 280 bp, 65% SI to human TRF1-interacting, ankyrin-related ADP-ribose polymerase [AF082556] ([2]; CARDIOTOX 11): +1.4 fold | Effects on Transcription Level: Novel gene fragment, 348 bp, 88% SI to mouse Sec61 protein complex gamma subunit [U11027] ([2]; CARDIOTOX 12): +1.3 fold | Effects on Transcription Level: Novel gene fragment 553 bp, 93% SI to mouse Sid329 [AB024984] ([2]; CARDIOTOX 13): +1.4 fold | Effects on Transcription Level: Kruppel-like transcription factor ([2]; CARDIOTOX 14, GenBank AB020759): +1.3 fold | Effects on Transcription Level: Ribosomal protein L3 ([2]; CARDIOTOX 15, GenBank X62166): +1.4 fold | Effects on Transcription Level: Glucose-regulated protein (GRP) 75 ([2]; CARDIOTOX 16, GenBank S78556): +1.4 fold | Effects on Transcription Level: Immunoglobulin heavy chain binding protein (BiP) ([2]; CARDIOTOX 17, GenBank M14050): +1.4 fold | Effects on Transcription Level: Membrane-spannining proteoglycan NG2 ([2]; CARDIOTOX 18, GenBank X56541): −1.5 fold | Effects on Transcription Level: Novel gene fragment, 1294 bp, 96% SI to mouse Sui 1 (elF) homolog [AF129888] ([2]; CARDIOTOX 19): +1.6 fold | Effects on Transcription Level: Novel gene fragment, 723 bp, 85% SI to human translation initiation factor elF3 p40 subunit [U54559] ([2]; CARDIOTOX 20): +1.6 fold | Effects on Transcription Level: Novel gene fragment, 1324 bp, 76% SI to human flavoprotein subunit of complex II [D30648] ([2]; CARDIOTOX 21): +1.5 fold | Effects on Transcription Level: Novel gene fragment, 852 bp, 81% SI to human vacuolar proton-ATPase subunit M9.2 [Y15286] ([2]; CARDIOTOX 22): +1.5 fold | Effects on Transcription Level: Novel gene fragment, 178 bp, 91% SI to mouse myosin light chain-2 isoform MLC-2a [S70785] ([2]; CARDIOTOX 23): +1.4 fold | Effects on Transcription Level: Novel gene fragment, 167 bp, 90% SI to mouse Rab20 [X80332] ([2]; CARDIOTOX 24): +1.9 fold | Effects on Transcription Level: Novel gene fragment, 1070 bp, 80% SI to human muscle-specific protein [AF249873] ([2]; CARDIOTOX 25): +1.5 fold | Effects on Transcription Level: Novel gene fragment, 1143 bp, 82% SI to human sarcoma amplified sequence (SAS) [U01160] ([2]; CARDIOTOX 26): +1.7 fold | Effects on Transcription Level: Novel gene fragment, 74 bp,75% SI to human secreted protein [X30160] (from patent database)/[X97578] (from patent database)/potential cytokine) ([2]; CARDIOTOX 27): +1.5 fold | Effects on Transcription Level: Novel gene fragment, 408 bp, 90% SI to human CGI-07 protein [AF132941] ([2]; CARDIOTOX 28): +1.6 fold | Effects on Transcription Level: Novel gene fragment, 618 bp, 95% SI to rat progression related cDNA, ZNPE-120 3′ end partial sequence [patent database X90805] ([2]; CARDIOTOX 29): +1.5 fold | Effects on Transcription Level: Novel gene fragment, 717 bp ([2]; CARDIOTOX 30): +1.5 fold | Effects on Transcription Level: Novel gene fragment, 546 bp ([2]; CARDIOTOX 31): +1.8 fold | Effects on Transcription Level: Novel gene fragment, 920 bp, 91% SI to human HSPC061 [AF161546] ([2]; CARDIOTOX 32): +1.5 fold | Effects on Transcription Level: Novel gene fragment, 203 bp, 92% SI to rabbit sarcoplasmic reticulum glycoprotein [J04480] ([2]; CARDIOTOX 33): −1.7 fold | Effects on Transcription Level: Novel gene fragment, 178 bp, 68% SI to mouse IgG receptor (beta-Fc-gamma-RII)[M63159] ([2]; CARDIOTOX 34): +1.4 fold | Effects on Transcription Level: Ribosomal protein L6 ([2]; CARDIOTOX 35, GenBank X87107): +1.6 fold | Effects on Transcription Level: CAP2 protein (adenylyl cyclase-associated protein 2) ([2]; CARDIOTOX 36, GenBank U31935): +2.0 fold | Effects on Transcription Level: Alpha-platelet-derived growth factor receptor ([2]; CARDIOTOX 37, GenBank M63837): +1.6 fold | Effects on Transcription Level: Rab GD1 alpha protein ([2]; CARDIOTOX 38, GenBank X74402): −1.6 fold | Effects on Transcription Level: PKC-zeta-interacting protein ([2]; CARDIOTOX 39, GenBank Y08355): +1.6 fold | Effects on Transcription Level: ERK or MAP kinase ([2]; CARDIOTOX 40, GenBank X65198): +1.5 fold | Effects on Transcription Level: Peroxisomal multifunctional enzyme type II ([2]; CARDIOTOX 41, GenBank U37486): +1.5 fold | Effects on Transcription Level: HBP23 (heme-binding protein 23 kDa) ([2]; CARDIOTOX 42, GenBank D30035): +1.7 fold | Effects on Transcription Level: Caveolae-associated protein ([2]; CARDIOTOX 43, GenBank U90725): +3.1 fold | Effects on Transcription Level: Prenylated rab acceptor 1 (PRA1) ([2]; CARDIOTOX 44, GenBank AF025506): +1.5 fold | Effects on Transcription Level: Novel gene fragment, 337 bp, 88% SI to rabbit cardiac ryanodine receptor (RyR-2)[U50465] ([2]; CARDIOTOX 45): −1.5 fold | Effects on Transcription Level: Novel gene fragment, 81 bp, 85% SI to human titin [X90568] ([2]; CARDIOTOX 46): −2.2 fold | Effects on Transcription Level: Novel gene fragment, 428 bp, 86% SI to human titin [X90568] ([2]; CARDIOTOX 47): −2.0 fold | Effects on Transcription Level: Novel gene fragment, 374 bp, 88% SI to human titin [X90568] ([2]; CARDIOTOX 48): −2.3 fold | Effects on Transcription Level: Novel gene fragment, 428 bp, 85% SI to human titin [90568] ([2]; CARDIOTOX 49): −2.2 fold | Effects on Transcription Level: Novel gene fragment, 1216 bp, 93% SI to mouse mircotubule-associated protein (MAP) 1B protein [AF115776] ([2]; CARDIOTOX 50): 1 fold | Effects on Transcription Level: Novel gene fragment, 1115 bp, 83% SI to human KIAA0549 protein [AB011121] ([2]; CARDIOTOX 51): −2.1 fold | Effects on Transcription Level: Novel gene fragment, 153 bp ([2]; CARDIOTOX 52): −1.7 fold | Effects on Transcription Level: Novel gene fragment, 89 bp, 93% SI to human putative glialblastoma cell differentiation-related protein (GBDR1) [AF068195] ([2]; CARDIOTOX 53): +1.6 fold | Effects on Transcription Level: Rho-associated kinase beta ([2]; CARDIOTOX 54, GenBank U61266): −1.10 fold | Effects on Transcription Level: Adenylate kinase 3 ([2]; CARDIOTOX 55, GenBank D13062): +1.5 fold | Effects on Transcription Level: Amyloid beta-peptide binding protein ([2]; CARDIOTOX 56, GenBank AF049878): +1.5 fold | Effects on Transcription Level: Mitochondrial adenine nuleotide translocator ([2]; CARDIOTOX 57, GenBank D12771): +1.5 fold | Effects on Transcription Level: Novel gene fragment, 710 bp, 94% SI to mouse chromatin structural protein homolog Supt5 hp (Supt5 h)[U88539] ([2]; CARDIOTOX 58): +3.0 fold | Effects on Transcription Level: Novel gene fragment, 186 bp, 66% SI to human N-acetylglucosaminyltransferase 1 (GlcNAc-TI)[M55621] ([2]; CARDIOTOX 60): −1.8 fold | Effects on Transcription Level: Novel gene fragment, 238 bp, 95% SI to mouse MAP kinase-activated protein kinase 2 [X76850] ([2]; CARDIOTOX 61): −2.7 fold | Effects on Transcription Level: Novel gene fragment, 173 bp, 70% SI to G protein-coupled receptor kinase GRK4 [X97568] ([2]; CARDIOTOX 62): −6.11 fold | Effects on Transcription Level: Novel gene fragment, 133 bp, 77% SI to human apoptosis related protein hSARP3 [patent database: V19114] ([2]; CARDIOTOX 63): −3.2 fold | Effects on Transcription Level: Novel gene fragment, 477 bp, 98% SI to peroxisomal phytanoyl-CoA hydroxylase (PHYH) [AF121345] ([2]; CARDIOTOX 64): +5.1 fold | Effects on Transcription Level: Novel gene fragment, 413 bp, 95% SI to mouse dihydrolipoamide dehydrogenase (Dld) [U73445] ([2]; CARDIOTOX 65): +1.10 fold | Effects on Transcription Level: Novel gene fragment, 726 bp, 76% SI to human succinate dehydrogenase flavoprotein subunit (SDH) [L21936] ([2]; CARDIOTOX 66): −4.1 fold | Effects on Transcription Level: Novel gene fragment, 440 bp, 92% SI to mouse cytochrome c oxidase Vllc [X52940] ([2]; CARDIOTOX 67): +3.7 fold | Effects on Transcription Level: Novel gene fragment, 276 bp, 80% SI to human titin [X90568] ([2]; CARDIOTOX 68): −11.10 fold | Effects on Transcription Level: Novel gene fragment, 149 bp, 70% SI to human titin [X90568] ([2]; CARDIOTOX 69): −5.6 fold | Effects on Transcription Level: Novel gene fragment, 467 bp, 94% SI to mouse gelsolin [J04953] ([2]; CARDIOTOX 70): −3.2 fold
